Values of other authors, collected in patent US20170340580A1, “BIOADHESIVE PATCH” (priority 2008, published 2017).

Settings: 8 mg ml^−1; temperatures up to 37° C.

For `NCC(=O)CCC(=O)O` [ALA, 5-aminolevulinic acid], the “ALA stability in 0.1 M borate buffer pH 5” value is listed as “up to 6 hours”.
